# Measured values reported in patent US8134010B2, “Thiazole-based nitric oxide donors having aryl substituent(s) and uses thereof” (priority 2004, dated 2012).
# Entries after “also recorded” stand apart in the source; their conditions may differ.
# Tests used:
# [1] = test system: c-GMP in slices of thoracic aorta of rats; assay: Cyclic-GMP measurement in aortic rat tissue (radioimmunoassay); type: cell-based; conditions: for accumulation of cyclic-GMP as compared with GTN: isolated rat aorta, radioimmunoassay; for cGMP Post-infusion: post-infusion (repeated treatment)
# Method: GTN (10^−6 M) was added to the chamber and, 1 minute after exposure to the drug, rings (usually 3-5) were taken, wrapped with aluminum foil and immediately frozen in liquid nitrogen for storage. Control sample group was treated with the vehicle solution only. At the time of analysis, rings were thawed, blotted over a dry gauzed and weighted. A known weight of tissue was homogenized in 2 ml ice-cold modified Hank's balanced salt solution containing (in gram/liter) NaCl 8; KCl 0.4; glucose 1; KH2PO4 0.06; Na2HPO4 0.047; Phenol red 0.017 and further containing 25 mM EDTA (disodium salt). The homogenate was centrifuged at 4000 g (force units) for 10 minutes at 2-4° C. and the supernatant was thereafter transferred into fresh pre-cooled test tube containing 1 ml of acetonitrile. The tubes were vortex mixed for a few seconds and subsequently centrifuged at 4000 g for 5 minutes at 2-4° C., to remove the precipitated protein. Each supernatant was transferred into a clean test tube and evaporated to dryness under a stream of nitrogen at 55° C. The dry residue was reconstituted with 10 volumes of Tris-EDTA buffer pH 7.5 (0.05 M Tris containing 4 mM EDTA). Aliquots of 100 μl of the reconstituted solution in duplicate were used for c-GMP measurements using Amersham RIA kit, as is described in Haj-Yehia & Benet [Pharmacology, 1995, 273, 1, pp. 94-100]. Standard curves were plotted with six concentrations (0, 0.5, 1, 2, 4 and 8 pmoles of c-GMP per tube).
# The NO-tolerance effect of GTN and NO-donor compounds according to the present invention was measured by following the production of c-GMP in slices of thoracic aorta of rats. Thus, the production of c-GMP was measured as described in the methods section above for the reference NO-donor compound GTN, and for the NO-donors of the present invention Pet-2, Pet-3, Pet-7, Pet-8, Pet-10, Pet-12, Pet-24, Pet-59, Pet-106, Pet-107, Pet-120, Pet-147, Pet-149, Pet-152, Pet-154 and Pet-155.
# [2] = test system: hypertensive Sprague-Dawley male rats; assay: Hypotensive effects: mean arterial pressure during intravenous bolus doses; type: in vivo, rat; conditions: for activity as hypotensive agents (MAP): rats given phenylephrine
# Method: Mean arterial pressure (MAP) was monitored and determined during bolus infusion of Pet-2, Pet-3, Pet-7, Pet-8, Pet-12 and Pet-13. Briefly, polyethylene catheters (PE50) were inserted into the carotid artery and into the jugular vein of anesthetized hypertensive Sprague-Dawley male rats (200-300 grams). A blood pressure recorder was placed within the carotid artery. Phenylephrine (0.1 mg) was then injected and the mean arterial blood pressure (MABP) was monitored continuously until a stable baseline was reached. The hypotensive effects of intravenous (iv) bolus doses (0.1 mg of each tested compound) administered intravenously at the jugular vein in minimal volume of vehicle (0.2 ml per dose) were evaluated. Five minutes were allowed between each dose, during which the maximal decrease in MAP was recorded and a dose-response graph comparing the hypotensive effect of the compounds was constructed.
# isolated rat aorta [3] = assay: In vitro induction of tolerance to NO releasing compounds (vasorelaxation of pre-exposed aortic rings); type: cell-based; conditions: rings pre-treated with epinephrine and then with 0.44 mM of the same compound
# Method: Aortic rings were prepared as described hereinabove, and were exposed to 0.44 mM GTN (vehicle was water:ethanol:propyleneglycol at proportional ratio of 1:1:1) for 1 hour before CCRC construction, to thereby induce tolerance to nitroglycerine. At the end of the tolerance induction period, rings were thrice washed with the path buffer (Krebs-bicrbonate) every 15 minutes for the following hour and then CCRC for vasorelaxation on GTN-induced tolerance rings were constructed for GTN (pretreated versus untreated rings, FIG. 15), in order to verify the ability to induce and measure GTN tolerance induction in vitro
# Attempted induction of tolerance to the NO-donating compounds of the present invention was performed under the same conditions as for GTN. Thus, in an exemplary experiment, rings were exposed to 0.44 mM solution of Pet-3 in the attempt to induce tolerance for Pet-3. CCRC were then measured for the vasorelaxing effect of Pet-3 on a group of rings which were pre-exposed to Pet-3 as to induce tolerance to Pet-3, and for an untreated control group. The above protocol was repeated with Pet-2, Pet-7, Pet-8, Pet-12, Pet-24, Pet-43, Pet-149 and Pet-152.
# [4] = test system: cyclic-GMP in isolated aorta of rats; assay: Induction of in vivo nitrate tolerance (cGMP in isolated aorta of rats pre-treated in vivo); set-up: species or system rat; conditions: rats pre-treated in vivo with the same compound
# Method: For c-GMP levels and tolerance development, the rat's thoracic aorta was isolated after exposure to the tested compound in vivo, and measured as described above in the in vitro assays.
# Male Sprague Dawley rats (220 to 250 grams) were housed under constant temperature and humidity conditions. Light was maintained at a 12/12 light dark cycle. Except for 12 hours before the experiment, when food fasting was initiated, all rats had free access to standard rat pellet diet and tap water. The animals were anesthetized by intraperitoneal injection of ketamine and xylazine combination (50 and 10 milligram per kilogram, respectively). […] The catheters were filled with normal saline solution containing 1000 IU/ml of heparin and plugged with a metal pin. Catheters were externalized to the back of the neck region and secured by a polyester felt disk.
# After implantation, the rats were individually housed until they regained their preoperative weight and appeared healthy (3 to 4 days post-operation). At this time point (day 0), an osmotic mini-pump (Alza Corp., Palo Alto, Calif.) delivering constant volume (10 μl/hour) of vehicle or drug was connected to one of the intravenous catheters.
# For inducing tolerance to the tested NO-donor according to the present invention, the animals received 200 μg/hour of the tested compound for 16 hours (short-term-induced tolerance). A similar number of animals were processed by the same surgical procedure and received the vehicle alone (10 μl/hour of a solution consisting of 30% ethanol and 30% propylene glycol in sterile distilled water for injection).
# At the end of the infusion periods used for the development of tolerance (16 hour), the rats were anesthetized as described above, the two catheters were externalized and the delivering catheters were disconnected from the mini-pump. The abdomen was opened by midline incision and the thoracic aorta were isolated, washed and cleaned from the surrounding tissues. […]
# isolated rat aorta [5] = assay: Cross-tolerance studies on aortic rings (GTN / Pet-12 pre-treatment); type: cell-based
# Method: Cross-tolerance studies were conducted using the same technique described above for measuring vasorelaxation of aortic rings from rats. Two groups of aortic rings samples were pre-treated with GTN, then one group was measured for vasorelaxation by GTN and the second group for vasorelaxation by Pet-12, an exemplary NO-donor according to the present invention. For the opposite cross-tolerance studies, two groups of aortic rings samples were pre-treated with Pet-12, then one group was measured for vasorelaxation by GTN and the second group for vasorelaxation by Pet-12.
Structure (SMILES),accumulation of cyclic-GMP as compared with GTN [1],"tolerance induction in vitro (vasorelaxation, pre-treated versus control rings) (isolated rat aorta [3])",also measured
"Cc1nc(-c2ccccc2)sc1CCO[N+](=O)[O-] [Pet-8, 4-Methyl-5-(2-nitrooxy-ethyl)-2-phenyl-thiazole]",increased levels of cGMP,–,activity as hypotensive agents (MAP) [2]: high activity
"CC(=O)Nc1ccc(-c2nc(C)c(CCO[N+](=O)[O-])s2)cc1 [Pet-107, N-{4-[4-Methyl-5-(2-nitrooxy-ethyl)-thiazol-2-yl]-phenyl}-acetamide]",increased levels of cGMP,absence of tolerance induction,cGMP Post-infusion ([1]; rat thoracic aorta): 125 ± 10 pmol/g tissue
"Cc1nc(C)c(CCO[N+](=O)[O-])s1 [Pet-3, 2,4-Dimethyl-5-(2-nitrooxy-ethyl)-thiazole]",increased levels of cGMP,absence of tolerance induction,activity as hypotensive agents (MAP) [2]: high activity
"CCNc1nc(C)c(CCO[N+](=O)[O-])s1 [Pet-147, Ethyl-[4-methyl-5-(2-nitrooxy-ethyl)-thiazol-2-yl]-amine]",increased levels of cGMP,–,–
"Cc1nc(NC(=O)[C@@H](C)c2ccc(CC(C)C)cc2)sc1CCO[N+](=O)[O-] (stereo in doubt) [Pet-152, 2-(4-Isobutyl-phenyl)-N-[4-methyl-5-(2-nitrooxy-ethyl)-thiazol-2-yl]-propionamide]",increased levels of cGMP,–,–
"Cc1nc(Nc2nc(C)c(CCO[N+](=O)[O-])s2)sc1CCO[N+](=O)[O-] [Pet-43, Bis-[4-methyl-5-(2-nitrooxy-ethyl)-thiazol-2-yl]-amine]",–,absence of tolerance induction,–
Cc1nc(CCCCc2nc(C)c(CCO[N+](=O)[O-])s2)sc1CCO[N+](=O)[O-] [Pet-13],–,–,activity as hypotensive agents (MAP) [2]: high activity
"Cc1nc(-c2ccc(C(F)(F)F)cc2)sc1CCO[N+](=O)[O-] [Pet-59, 4-Methyl-5-(2-nitrooxy-ethyl)-2-(4-trifluoromethyl-phenyl)-thiazole]",increased levels of cGMP,–,–
"Cc1nc(NC(=O)c2cccnc2)sc1CCO[N+](=O)[O-] [Pet-154, N-[4-methyl-5-(2-nitrooxy-ethyl)-thiazol-2-yl]-nicotinamide]",increased levels of cGMP,–,–
"O=[N+]([O-])OCC(CO[N+](=O)[O-])O[N+](=O)[O-] [GTN, glyceryl trinitrate, reference compound]",–,tolerance inducement caused by treatment with GTN; also recorded: causing the emergence of tolerance; also recorded: tolerance induced by treatment with GTN,c-GMP level following a repeated treatment ([1]; rat thoracic aorta): significantly reduced; tolerance induction by cyclic-GMP accumulation in aorta of rats pre-treated in vivo [4]: tolerance inducing effect; also recorded: decreased; hypotensive effect on MAP following successive administrations ([2]; successive doses): attenuation in its effect on MAP
"Cc1nc(-c2cccnc2)sc1CCO[N+](=O)[O-] [Pet-12, 3-[4-Methyl-5-(2-nitrooxy-ethyl)-thiazole-2-yl]-pyridine]",–,absence of tolerance induction,"vasorelaxation in rings made tolerant to GTN (cross-tolerance) (isolated rat aorta [5]; aorta pre-treated with GTN): has no effect on the vasorelaxation capacity of Pet-12; also recorded: absence of tolerance induction effect; tolerance induction in rings pre-treated with Pet-12 (cross-tolerance) (isolated rat aorta [5]; aorta pre-treated with Pet-12, vasorelaxation by Pet-12 and GTN): does not evoke tolerance to itself not to GTN; also recorded: absence of tolerance induction effect; tolerance induction by cyclic-GMP accumulation in aorta of rats pre-treated in vivo [4]: lack of tolerance induction; also recorded: absence of tolerance induction; activity as hypotensive agents (MAP) [2]: high activity"
"Cc1nc(N(C)C)sc1CCO[N+](=O)[O-] [Pet-7, Dimethyl-[4-methyl-5-(2-nitrooxy-ethyl)-thiazol-2-yl]-amine]",increased levels of cGMP,absence of tolerance induction,activity as hypotensive agents (MAP) [2]: high activity
"CNc1cncc(-c2nc(C)c(CCO[N+](=O)[O-])s2)n1 [Pet-24, Methyl-{6-[4-methyl-5-(2-nitrooxy-ethyl)-thiazol-2-yl]-pyrazin-2-yl}-amine]",increased levels of cGMP,absence of tolerance induction,–
"Cc1nc(Nc2cccc3ccccc23)sc1CCO[N+](=O)[O-] [Pet-149, [4-Methyl-5-(2-nitrooxy-ethyl)-thiazol-2-yl]-naphthalen-1-yl-amine]",increased levels of cGMP,absence of tolerance induction,–
"Cc1nc(-c2ccc(N)cc2)sc1CCO[N+](=O)[O-] [Pet-106, 4-[4-Methyl-5-(2-nitrooxy-ethyl)-thiazol-2-yl]-phenylamine]",increased levels of cGMP,absence of tolerance induction,cGMP Post-infusion ([1]; rat thoracic aorta): 120 ± 12 pmol/g tissue
"C=CCNc1nc(C)c(CCO[N+](=O)[O-])s1 [Pet-155, allyl-[4-methyl-5-(2-nitrooxy-ethyl)-thiazol-2-yl]-amine]",increased levels of cGMP,–,–
"Cc1nc(N)sc1CCO[N+](=O)[O-] [Pet-10, 4-methyl-5-(2-nitrooxy-ethyl)-thiazole-2-ylamine]",increased levels of cGMP,–,–
